The values below come from patent US20130039928A1, “COMPOSITIONS AND METHODS FOR REVERSING CORTICOSTEROID RESISTANCE OR TREATING RESPIRATORY INFECTIONS” (priority 2010, published 2013).

Assay [1] has as its system secretory leukocyte protease inhibitor (SLPI). The settings on record: alveolar macrophages of patients with COPD, treated with or without sulforaphane. The procedure:
(§1) Human alveolar macrophages were purified from individual BAL samples by centrifugation and seeded onto 6-well tissue culture plates. After incubation for 2 h, non-adherent cells were removed and the adherent cells were incubated with R, S-sulforaphane (5 μM; LKT Laboratories, Inc., St. Paul, Minn.) and or DMSO in RPMI 1640 culture medium with 10% FBS and 1% penicillin-streptomycin (Invitrogen, Carlsbad, Calif.). After 16-20 h, adherent cells were scraped, suspended in RPMI 1640 culture media and plated onto 96-well tissue culture plates for bacterial phagocytosis and clearance assays. […] For MARCO antibody-depletion, alveolar macrophages were incubated with human anti-MARCO antibody (1 μg/ml; (Hycult, Uden, The Netherlands) for 4 hours prior to bacterial challenge.

Assay [2] has as its system nontypeable Haemophilus influenzae. Conditions: COPD alveolar macrophages, compared to vehicle. The protocol:
as §1
Sputum isolates of nontypeable H. influenzae and P. aeruginosa obtained from patients with COPD at the Department of Veterans Affairs, Western New York Healthcare System were used (S. Sethi, N. Evans, B. J. Grant, T. F. Murphy, N Engl J Med 347, 465 (Aug. 15, 2002); C. S. Berenson, M. A. Garlipp, L. J. Grove, J. Maloney, S. Sethi, J Infect Dis 194, 1375 (Nov. 15, 2006); T. F. Murphy et al., Am J Respir Crit Care Med 177, 853 (Apr. 15, 2008); T. F. Murphy, A. L. Brauer, A. T. Schiffmacher, S. Sethi, Am J Respir Crit Care Med 170, 266 (Aug. 1, 2004)). […]
Bacterial phagocytosis was quantified using a flow cytometry analysis.

In the case of `C[S+]([O-])CCCCN=C=S` (centres unmarked) [sulforaphane], the “SLPI levels in cell free media” value in assay [1] is listed as “greater levels of SLPI”. Moreover, in assay [2], the “phagocytosis of FITC-labeled nontypeable Haemophilus influenzae” value is given as “significantly enhanced phagocytosis”.
